The results in this text go back to US4868195A, “Novel enolamides, pharmaceutical compositions and methods of use thereof for activity as modulators of the arachidonic acid cascade” (Warner-Lambert Company, priority 1988, dated 1989).

The target in test [1] is T1, human leukocyte 5-lipoxygenase (Homo sapiens, UniProt P09917).
T1 construct: endogenous in cells; host or cells: intact leukocytes isolated from human blood
T1 sequence (P09917 1-674): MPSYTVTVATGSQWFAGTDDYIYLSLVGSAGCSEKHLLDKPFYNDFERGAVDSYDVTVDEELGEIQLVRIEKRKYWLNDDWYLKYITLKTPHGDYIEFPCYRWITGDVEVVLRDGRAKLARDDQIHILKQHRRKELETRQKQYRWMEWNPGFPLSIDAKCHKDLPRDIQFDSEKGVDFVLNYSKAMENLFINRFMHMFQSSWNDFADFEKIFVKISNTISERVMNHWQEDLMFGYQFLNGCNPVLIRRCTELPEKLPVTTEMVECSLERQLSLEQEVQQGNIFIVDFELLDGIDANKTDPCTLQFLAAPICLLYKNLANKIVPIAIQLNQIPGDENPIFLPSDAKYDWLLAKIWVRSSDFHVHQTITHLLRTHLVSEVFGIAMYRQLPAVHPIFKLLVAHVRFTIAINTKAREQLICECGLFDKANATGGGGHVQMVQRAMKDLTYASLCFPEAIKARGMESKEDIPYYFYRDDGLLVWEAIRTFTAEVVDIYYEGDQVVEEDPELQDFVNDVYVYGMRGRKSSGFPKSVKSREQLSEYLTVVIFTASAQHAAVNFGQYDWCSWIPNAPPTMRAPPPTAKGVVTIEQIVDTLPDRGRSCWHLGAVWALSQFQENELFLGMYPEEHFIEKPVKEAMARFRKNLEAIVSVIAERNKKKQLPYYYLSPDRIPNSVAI
Nature of the test: 5-lipoxygenase inhibition in human leukocytes, 5-HETE formation (5LOA; methods 5LOA1 and 5LOA2). The format is cell-based. The following applies: 5-HETE formation, human leukocytes; read-out: Concentration (M) for 50.0 % Inhibition, IC (5LOA). An excerpt:
To Evaluate the Effect of Each Compounds as a 5-Lipoxygenase Inhibitor in Comparison to Standard Reference Agents in Human Leukocytes (5LOA1)
The purpose of this assay is to evaluate the activity of each compound as an inhibitor of human leukocyte 5-lipoxygenase.
Arachidonic acid and calcium ionophore A23187 are obtained from Sigma (St. Louis, MO). Silica gel plates, GF are obtained from Analtech (Newark, DE). Arachidonic acid, (1-^14 C) and 5-HETE (^3 H), 5 (S)-hydroxy-6-trans,8,11,14-cis eicosatetraenoic acid, are obtained from New England Nuclear (Boston, MA). Six percent Dextran-70 in 0.9% NaCl is obtained from Cutter Labs (Berkeley, CA).
Preparation of Leukocytes
Fresh blood from normal adult men who had not received any drugs for at least the previous five days is obtained by the Community Research Clinic (WL/PD) using venipuncture and collected into heparinized vacuotainer tubes. To every 100 ml of pooled blood is added 25 ml of dextran solution (6% dextran -70 in 0.9% sodium chloride containing 3% dextrose) and this is mixed gently in a plastic cylinder. The mixture is left to stand at room temperature for at least 90 minutes. The upper layer which is rich in leukocytes and platelets is then carefully decanted into 50 ml plastic tubes and centrifuged at about 100×g for eight minutes in an IEC centrifuge and rotor number 269 (about 600 rpm). The supernatant fluid is discarded and the pellet is resuspended in 10 ml of 0.87% ammonium chloride for exactly two minutes. This procedure is to lyse completely contaminating red blood cells. Leukocytes are then separated by centrifugation for ten minutes. The pellet is washed three times by suspension in 20 ml PBS (sodium chloride, 7.1 g; Na2 HPO4, 1.15 g; KH2 PO4, 0.2 g, and KCl, 0.2 g/L) and centrifuged as before. The final pellet is suspended in PBS containing 0.87 mM CaCl2. Viability of the cells is then checked using trypan blue exclusion method and is found to be over 90%.
5-Lipoxygenase Enzyme Assay
Leukocyte cells in suspension (0.98 ml) are incubated with or without test compounds for five minutes at 37° C. in a shaking water bath. At this time a 17 μl mixture is prepared per 1 ml of cell suspension: 100 mM arachidonic acid, 1 μl, 0.05 μCi ^14 C-arachidonic acid in 5 μl; 1 mM calcium ionophore A23187, 10 μl (1). This mixture is added and the incubation continued for five minutes. The reaction is stopped by adding four volumes of absolute ethanol and the mixture is kept in ice for 30 minutes. The floculated precipitate is separated by centrifugation at about 37,000×g for 20 minutes (Beckman Instruments rotor number 40). The alcohol extract is taken to dryness under a stream of nitrogen and the residue is dissolved in 100-200 μl absolute ethanol. At the time any turbidity is removed by centrifugation. An aliquot (25-50 μl) is applied onto 20×20 cm silica gel TLC plate and developed using the following solvent system: diethyl ether, petroleum ether (2040° C.), acetic acid (50:50:1 v/v). Zones of 1 cm apart are scraped from the TLC plate and transferred to mini-vials. Methanol (0.5 ml) is added to dissolve the radioactivity adsorbed to the silica gel and scintillation fluid (H. P., Beckman), 5 ml is then added and vials are counted in a liquid scintillation counter. A sample of ^3 H-5-HETE is applied and used for the identification of the formed 5-HETE.
Total radioactivity in the test as well as the control samples are normalized and the amount of 5-HETE present is calculated accordingly.
IC50 values are defined as the concentrations of test agents which caused a 50% inhibition of the formation of 5-HETE as compared to control and are determined by inspection of the concentration-response curves.
5-Lipoxygenase Assay Using Isolated Human Leukocytes (5LOA2)
The formation of 5-HETE in human leukocytes is considered a measure of 5-lipoxygenase activity. The protocol is described in the following. […]

Test [2] has as its target Human Leukocyte Lipoxygenase. Description: Human Leukocyte Lipoxygenase Assay (LDA-H). The format is biochemical. The procedure:
Human Leukocyte Lipoxygenase Assay (LDA-H)
Whole blood is collected from normal volunteers and spun in a refrigerated centrifuge for four minutes at 1°-6° C. at 3800 g. The buffy coat is manually separated and washed twice with chilled 0.83% NH4 Cl and centrifuged at 1000 RPM for ten minutes at 4° C. The white cell is suspended in culture media-EMEM supplemented with 6% Agamma human serum, tricine buffer, and neomycin and recentrifuged at 1000 g to yield a pellet containing the leukocytes used for the preparation of the acetone pentane powder.
The acetone-pentane powder is prepared utilizing a modification of the procedure reported for human platelet lipoxygenase. See Siegel, et al, Arachidonate Metabolism via Lipoxygenase and 12-L-hydroperoxy-5 Eicosatetraenoic Acid Peroxidase Sensitive to Antiinflammatory Drugs, Proc. Natl. Acad. Sci., USA 77: 308, 1980 and D. P. Wallach and V. R. Brown, A Novel Preparation of Human Platlet Lipoxygenase, Biochem. Biophys. Acta. 663: 361, 1981. Buffy coat prepared above is resuspended in 5-7 volumes of cold 0.1M Tris buffer, pH 7.4 containing 0.154M NaCl. The suspension is centrifuged at 13,300 g for ten minutes at 4° C. The resultant pellet is retained, resuspended in five volumes of cold acetone, recentrifuged at 13,300 g and resuspended in five volumes of cold pentane. The pentane suspension is centrifuged for ten minutes at 13,300 g to give a pellet which is dried in the cold under vacuum with periodic pulverization. The dry powder is stable for several weeks when stored at -80° C.
Enzyme stock solution is prepared in the following manner. About 15 mg of the acetone-pentane powder is suspended in 4 ml of cold tris buffer (0.1M, pH 7.4), allowed to stand for five minutes, and homogenized thoroughly. The homogenate is sonicated three times for 15 seconds each time, diluted to 7 ml with cold tris buffer (0.1M, pH 7.4), and centrifuged at 4° C. for 60 minutes at 13,300 g. the supernatent is retained and diluted to a total of 10 ml with cold tris buffer (0.1M, pH 7.4) to give the stock enzyme solution. Additional dilutions of 2-50 fold are done as necessary to locate optimal enzyme reaction rate in the assay described below.
Substrate solution is prepared at 100 μM or 1.0 μM concentrations of arachidonic acid or linoleic acid in 0.1M tris buffer, pH 9.0 containing 20% ethanol.
The enzyme reaction is followed spectrophotometrically by the appearance of a conjugated diene product at 234 nm. The reaction is monitored at 24° C. using a Gilford Model 2600 spectrophotometer. […] The effects of inhibitors on the reaction are compared with control reactions run under indentical conditions. Routinely, each compounds of the present invention is incubated with the enzyme for five minutes prior to addition of substrate to initiate the reaction. Inhibition expressed as IC50 as molar concentration of the compound required to reduce reaction rate to 50% control.

In test [3] the target is T2, leukotriene receptor (guinea pig lung membranes) (Cavia porcellus, UniProt Q2NNR5).
T2 construct: 20 mg original tissue wet weight of guinea pig lung; tissue Kuiper Rabbit Farm, Gary, IN (animals); host or cells: guinea pig lung, crude membranes
T2 sequence (Q2NNR5 1-340): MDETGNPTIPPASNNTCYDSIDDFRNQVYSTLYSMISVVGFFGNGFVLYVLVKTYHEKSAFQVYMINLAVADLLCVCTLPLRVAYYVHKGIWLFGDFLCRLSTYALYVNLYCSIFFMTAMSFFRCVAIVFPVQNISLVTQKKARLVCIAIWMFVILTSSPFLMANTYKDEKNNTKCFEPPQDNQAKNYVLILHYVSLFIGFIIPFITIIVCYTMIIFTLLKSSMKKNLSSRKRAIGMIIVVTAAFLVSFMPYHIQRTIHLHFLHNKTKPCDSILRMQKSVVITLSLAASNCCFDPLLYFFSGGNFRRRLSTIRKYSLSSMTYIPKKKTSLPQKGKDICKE
Description: Binding of ^3 H-Leukotriene D4 to Guinea Pig Lung Membranes (RBL). The following applies: 0.2 nM ^3 H-LTD4, 60 min, 25° C.; read-out: Concentration (M) for 50.0 % Inhibition, IC (RBL). As for the experimental part:
Additionally, the activity, of the compounds having the Formula I of the present invention is determined by the well known leukotriene receptor binding assay that is described by R. F. Bruns, W. J. Thomsen and T. A. Pugsley in Life Sciences, 33, 645 (1983) or the Herxheimer in vivo antiallergy test described in H. Herxheimer, J. Physiol. (London), Vol. 177, p. 251 (1952).
Binding of ^3 H-Leukotriene D4 to Guinea Pig Lung Membranes (RBL)
[14,15-^3 H]leukotriene D4 (^3 H-LTD4) (25 Ci/mmol and 40 Ci/mmol) is purchased from New England Nuclear. Unlabeled LTC4 is a gift of Ono Pharmaceuticals (Japan). LTC4, LTD4, and LTE4 are purchased as methyl esters from Paesel GmbH (Frankfurt, W. Germany). Concentrations of the Paesel leukotrienes are calculated from their absorbance at 280 nm. Leukotriene esters are saponified overnight under N2 in 3.3% potassium carbonate at room temperature. Tritiated leukotrienes are stored as received from New England Nuclear at -20° C. Ono LTC4 (5 μg/ml) is stored at -60° C. in phosphate buffer pH 6.8. Saponified Paesel leukotrienes are stored at -60° C. in 3.3% potassium carbonate (pH 9.0-9.5). Aliquots of leukotrienes are taken from stock solutions immediately after thawing, after which the stock solutions are immediately refrozen. 2-Amino-2-(hydroxymethyl)-1,3-propanediol (Tris) is Sigma pH 7.7 pre-set crystals, and dimethylsulfoxide is Aldrich Gold Label.
Preparation of crude lung membranes
Two pairs of lungs (1.3 g) from freshly sacrificed 300 g male guinea pigs (older animals gave substantially lower binding) from Kuiper Rabbit Farm, Gary, IN are disrupted with a Polytron PT 10 (setting 4) for 30 seconds in 20 ml ice-cold 50 mM Tris adjusted with HCl to pH 7.7 at 25° C. (Tris buffer), filtered through a single layer of gauze to remove connective tissue, and centrifuged at 50,000 xg for ten min. The pellet is resuspended by homogenization with a Polytron in 20 ml Tris buffer, centrifuged at 50,000 xg for ten min., resuspended, incubated at 37° C. for 30 minutes, and centrifuged again. The final pellet is resuspended in Tris buffer and either used fresh or stored at -70° C.
All incubations are in triplicate for 60 minutes at 25° C. in 12×75 mm polystyrene tubes containing 1 ml Tris buffer with 20 mg original tissue wet weight of guinea pig lung nmembranes, 0.2 nM ^3 H-LTD4 (6,000-11,000 cpm), 10 mM MgCl2, and 1% dimethylsulfoxide Leukotrienes are diluted in Tris buffer. All other test compounds dissolved at 10 mM in dimethylsulfoxide on the same day as the experiment, and diluted in dimethylsulfoxide to 100× the final incubation concentration. Control incubations receive an equal volume (10 μl) of dimethylsulfoxide; the resulting concentration of dimethylsulfoxide had no effect on binding. ^3 H-LTD4 is diluted to 2 nM in Tris buffer. The membrane suspension (20 mg/0.89 ml) contains sufficient MgCl2 to give 10 mM final concentration in the incubation. […] All additions are performed at 0° C. Immediately after the last addition, the incubation is initiated by agitating the rack of tubes on a vortex mixer and warming to 25° C. in a water bath. Tubes are vortexed at least once more during the incubation to ensure that the membranes remained suspended. Incubations are terminated after 60 minutes by filtering under reduced pressure through 25 mm Whatman GF/B filters followed by rapid washing three times with 4 ml of ice-cold Tris buffer. Filters are added to scintillation vials with 8 ml Formula 947 (New England Nuclear), left overnight, shaken, and the radioactivity counted in a scintillation counter (efficiency 40%). Nonspecific binding, defined as binding of ^3 H-LTD4 in the presence of 100 nM LTC4, is 300-500 cpm for all lots of ^3 H-LTD4. Binding to the filters in the absence of tissue is about 100 cpm, and is not affected by unlabeled LTC4. Specific binding, defined as total binding minus nonspecific binding, varied considerably from lot to lot of ^3 H-LTD4. […]

Several values for one entry are separate records, joined by “and”; a condition that tells them apart may be missing. Equal values may be shown once.

In the case of `O=C(Nc1ccc(CCc2ccc(O)c(O)c2)cc1)C(=O)C1Oc2ccccc2C1=O` (stereo not drawn) [Example 126, 2-Benzofuranacetamide, N-[4-[2-(3,4-Dihydroxyphenyl)ethyl]phenyl]-2,3-dihydro-α,3-dioxo-], the IC50 in test [1] is 3.55e-06 M and 2.17e-06 M.

Regarding `O=C(Nc1ccc(CCc2cc(O)cc(O)c2)cc1)C1=C(O)c2ccccc2S(=O)(=O)C1` [Example 33, N-[4-[2-(3,5-Dihydroxyphenyl)ethyl]phenyl]-4-hydroxy-2H-1-benzothiopyran-3-carboxamide, 1,1-dioxide], the IC50 in test [2] (acetone-pentane powder enzyme, 234 nm, 24° C., 5 min preincubation, read-out: Concentration (M) for 50.0 % Inhibition, IC (LDAH)) came to 2.5e-05 M; in test [3], 8.2e-05 M.

For the molecule `O=C(Nc1ccc(CCc2ccc(C(F)(F)F)cc2)cc1)C1CS(=O)(=O)c2ccccc2C1=O` (centres unmarked) [Example 44], the “% Inhibition (LDAH)” value in test [2] (Concentration 2.50 E -5 M) came to 0.0%. For the same molecule, the IC50 in test [3] turned out to be 3.02e-06 M.
